Our source for the IC50 and melting point values is US8735414B2 (priority 2009, dated 2014).

Series [1] relates to bicistronic HCV replicon (replicon RNA, GenBank Accession No. AJ242654). Description: HCV Replicon Assay. It is filed as cell-based. As to conditions: Hepatitis C virus, 72 h, read-out: Replicon IC50. For orientation: Replicon systems follow genome replication, usually without infectious particles.

Regarding `N#Cc1c(-c2ccc(NS(=O)(=O)C3CC3)cn2)n(C2CCCCC2)c2ccc(Cl)cc12` [compound 298, N-[6-(5-chloro-3-cyano-1-cyclohexyl-1H-indol-2-yl)pyridin-3-yl]cyclopropanesulfonamide], the melting point is 230 to 235 °C. For the same compound, in series [1], the IC50 lay in the range of 500 to 2000 nM.

The compound `CC(C)n1c(-c2ccc(NS(=O)(=O)C(C)(C)C)nc2)c(C#N)c2ccc(OC(F)F)cc21` [compound 299, N-{5-[3-cyano-6-(difluoromethoxy)-1-(propan-2-yl)-1H-indol-2-yl]pyridin-2-yl}-2-methylpropane-2-sulfonamide] yielded a melting point of 263 to 264 °C. In series [1], the half-maximal inhibitory concentration (IC50) was in the range of 2000 to 5000 nM.

`N#Cc1c(-c2ncc(S(=O)(=O)NC(CF)CF)cn2)n(CC2CC2)c2ccc(F)cc12` [compound 302, 2-[3-cyano-1-(cyclopropylmethyl)-5-fluoro-1H-indol-2-yl]-N-(1,3-difluoropropan-2-yl)pyrimidine-5-sulfonamide] returned a melting point of 216 to 221 °C. The IC50 in series [1] is less than 500 nM.

Take `CC(C)NS(=O)(=O)c1cnc(-c2c(C#N)c3cc(F)ccc3n2CC2CC2)nc1` [compound 303, 2-[3-cyano-1-(cyclopropylmethyl)-5-fluoro-1H-indol-2-yl]-N-(propan-2-yl)pyrimidine-5-sulfonamide]: the melting point was in the range of 215 to 220 °C. Besides, the IC50 in series [1] was less than 500 nM.

As to `C[C@@H](NS(=O)(=O)c1ccc(-c2c(C#N)c3ccc(OC(F)(F)F)cc3n2C2CCCCC2)nc1)C(F)(F)F` [compound 304, 6-[3-cyano-1-cyclohexyl-6-(trifluoromethoxy)-1H-indol-2-yl]-N-[(2R)-1,1,1-trifluoropropan-2-yl]pyridine-3-sulfonamide], the melting point was in the range of 181 to 183 °C. Also, the IC50 in series [1] is less than 500 nM.

`C[C@H](NS(=O)(=O)c1ccc(-c2c(C#N)c3ccc(OC(F)(F)F)cc3n2C2CCCCC2)nc1)C1CC1` [compound 305, 6-[3-cyano-1-cyclohexyl-6-(trifluoromethoxy)-1H-indol-2-yl]-N-[(1S)-1-cyclopropylethyl]pyridine-3-sulfonamide] displayed a melting point of 195 to 197 °C. Further, the IC50 in series [1] is less than 500 nM.

`N#Cc1c(-c2ncc(S(=O)(=O)NC(CF)CF)cn2)n(C2CCCCC2)c2cc(OC(F)(F)F)ccc12` [compound 306, 2-[3-cyano-1-cyclohexyl-6-(trifluoromethoxy)-1H-indol-2-yl]-N-(1,3-difluoropropan-2-yl)pyrimidine-5-sulfonamide] returned a melting point of 168 to 170 °C. For the same compound, the IC50 in series [1] lay in the range of 500 to 2000 nM.

Consider `N#Cc1c(-c2ccc(S(=O)(=O)NC(CF)CF)cn2)n(C2CCCC2)c2cc(F)ccc12` [compound 307, 6-(3-cyano-1-cyclopentyl-6-fluoro-1H-indol-2-yl)-N-(1,3-difluoropropan-2-yl)pyridine-3-sulfonamide], for which the melting point is 166 to 168 °C. Moreover, the IC50 in series [1] is less than 500 nM.

`CC(C)n1c(-c2ccc(S(=O)(=O)N[C@@H](C)C3CC3)cn2)c(C#N)c2ccc(OC(F)(F)F)cc21` [compound 308, 6-[3-cyano-1-(propan-2-yl)-6-(trifluoromethoxy)-1H-indol-2-yl]-N-[(1S)-1-cyclopropylethyl]pyridine-3-sulfonamide]: the melting point is 144 to 145 °C. In addition, the IC50 in series [1] is 500 to 2000 nM.

As for `C[C@H](NS(=O)(=O)c1ccc(-c2c(C#N)c3ccc(OC(F)(F)F)cc3n2CC2CC2)nc1)C1CC1` [compound 309, 6-[3-cyano-1-(cyclopropylmethyl)-6-(trifluoromethoxy)-1H-indol-2-yl]-N-[(1S)-1-cyclopropylethyl]pyridine-3-sulfonamide], the melting point fell in the range of 115 to 117 °C. The IC50 in series [1] was less than 500 nM.

On to `CCc1ccc2c(C#N)c(-c3ccc(S(=O)(=O)NC(CF)CF)cn3)n(C3CCCC3)c2c1` [compound 310, 6-(3-cyano-1-cyclopentyl-6-ethyl-1H-indol-2-yl)-N-(1,3-difluoropropan-2-yl)pyridine-3-sulfonamide], for which the melting point was in the range of 204.5 to 205 °C. Further, the IC50 in series [1] was less than 500 nM.

In turn, `CCc1ccc2c(C#N)c(-c3ccc(S(=O)(=O)N[C@H](C)C(F)(F)F)cn3)n(C3CCCC3)c2c1` [compound 311, 6-(3-cyano-1-cyclopentyl-6-ethyl-1H-indol-2-yl)-N-[(2R)-1,1,1-trifluoropropan-2-yl]pyridine-3-sulfonamide] had a melting point of 185 to 186 °C. Besides, the half-inhibitory concentration (IC50) in series [1] was less than 500 nM.

For the compound `CCc1ccc2c(C#N)c(-c3ccc(S(=O)(=O)N[C@@H](C)C4CC4)cn3)n(C3CCCC3)c2c1` [compound 312, 6-(3-cyano-1-cyclopentyl-6-ethyl-1H-indol-2-yl)-N-[(1S)-1-cyclopropylethyl]pyridine-3-sulfonamide], the melting point was in the range of 147.5 to 148.5 °C. Moreover, in series [1], the IC50 lay within 500 to 2000 nM.

`Cc1ccc2c(c1)c(C#N)c(-c1ccc(S(=O)(=O)NC3(C(F)(F)F)CC3)cn1)n2C1CCCC1` [compound 313, 6-(3-cyano-1-cyclopentyl-5-methyl-1H-indol-2-yl)-N-[1-(trifluoromethyl)cyclopropyl]pyridine-3-sulfonamide]: the melting point lay within 209 to 214 °C. Further, the IC50 in series [1] is less than 500 nM.

Take `CC(C)NS(=O)(=O)c1cnc(-c2c(C#N)c3cc(Cl)ccc3n2C2CCCC2)nc1` [compound 314, 2-(5-chloro-3-cyano-1-cyclopentyl-1H-indol-2-yl)-N-(propan-2-yl)pyrimidine-5-sulfonamide]: the melting point lay within 239 to 245 °C. Besides, the IC50 in series [1] was less than 500 nM.

As to `C[C@@H](NS(=O)(=O)c1ccc(-c2c(C#N)c3ccc(CF)cc3n2C2CCC2)nc1)C(F)(F)F` [compound 319, 6-[3-cyano-1-cyclobutyl-6-(fluoromethyl)-1H-indol-2-yl]-N-[(2R)-1,1,1-trifluoropropan-2-yl]pyridine-3-sulfonamide], the melting point lay in the range of 200 to 213 °C. Moreover, in series [1], the 50% inhibitory concentration (IC50) was in the range of 500 to 2000 nM.

Consider `C[C@H](NS(=O)(=O)c1ccc(-c2c(C#N)c3ccc(OC(F)(F)F)cc3n2C2CCCC2)nc1)C1CC1` [compound 320, 6-[3-cyano-1-cyclopentyl-6-(trifluoromethoxy)-1H-indol-2-yl]-N-[(1S)-1-cyclopropylethyl]pyridine-3-sulfonamide], for which the melting point is 133 to 134 °C. The IC50 in series [1] fell in the range of 500 to 2000 nM.

Regarding `N#Cc1c(-c2ncc(S(=O)(=O)NC(CF)CF)cn2)n(C2CCC2)c2cc(N3CCOCC3)ccc12` [compound 321, 2-[3-cyano-1-cyclobutyl-6-(morpholin-4-yl)-1H-indol-2-yl]-N-(1,3-difluoropropan-2-yl)pyrimidine-5-sulfonamide], the melting point was in the range of 223 to 225 °C. The IC50 in series [1] was 500 to 2000 nM.

In turn, `N#Cc1c(-c2ccc(S(=O)(=O)NC(CF)CF)cn2)n(C2CCC2)c2cc(N3CCOCC3)ccc12` [compound 322, 6-[3-cyano-1-cyclobutyl-6-(morpholin-4-yl)-1H-indol-2-yl]-N-(1,3-difluoropropan-2-yl)pyridine-3-sulfonamide] returned a melting point of 241 to 242 °C. The IC50 in series [1] lay within 2000 to 5000 nM.

With `C[C@H](NS(=O)(=O)c1cnc(-c2c(C#N)c3ccc(OC(F)F)cc3n2C2CCC2)nc1)C(F)(F)F` [compound 323, 2-[3-cyano-1-cyclobutyl-6-(difluoromethoxy)-1H-indol-2-yl]-N-[(2S)-1,1,1-trifluoropropan-2-yl]pyrimidine-5-sulfonamide], the melting point was in the range of 221 to 223 °C. Also, in series [1], the IC50 was less than 500 nM.

As a reminder, the IC50 is the concentration needed to halve the response being measured. The melting point is the temperature of the solid-liquid transition.
